According to the supplement of paper PMC10307832:

Assays:
Assay in all cases: relative viability (nuclei count vs DMSO), 5 days (fraction); higher = more cells survive
[1] = compound: CCn1c(-c2nonc2N)nc2c(C#CC(C)(C)O)ncc(OC[C@H]3CCCNC3)c21 + O=C(CCCCCCC(=O)Nc1ccccc1)NO [Vorinostat] (partner 1 µM)
How it was run: (§1)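 Values are medians from duplicate plates. Each reflects relative viability, defined as the nuclei count of treated wells over that of vehicle wells. Lung cancer cell lines in 1536-well plates were pin-tool dosed one day after seeding with one drug alone or with a fixed anchor-drug dose plus five library-drug doses (not always all listed) in √10 steps, then fixed, stained and imaged at 4× after 5 days.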

[2] = compound: CCOC1=CC=CC=C1N=NC2=C(NN(C2=O)C3=NC(=CS3)C4=CC=CC=C4)C [BAM7] + O=C(c1cc(Cc2n[nH]c(=O)c3ccccc23)ccc1F)N1CCN(C(=O)C2CC2)CC1 [Olaparib] (partner 8 µM)
How it was run: as §1

[3] = compound: CCOC1=CC=CC=C1N=NC2=C(NN(C2=O)C3=NC(=CS3)C4=CC=CC=C4)C [BAM7] + Nc1nc2[nH]cc(CCc3ccc(C(=O)N[C@@H](CCC(=O)O)C(=O)O)cc3)c2c(=O)[nH]1 [Pemetrexed] (partner 0.2 µM)
How it was run: as §1

[4] = compound: CCn1c(-c2nonc2N)nc2c(C#CC(C)(C)O)ncc(OC[C@H]3CCCNC3)c21 + CS(=O)(=O)N1CCN(Cc2cc3nc(-c4cccc5[nH]ncc45)nc(N4CCOCC4)c3s2)CC1 [Pictilisib] (partner 1 µM)
How it was run: as §1

Cell Line	relative viability ([1]; first compound 0.01 µM)	relative viability ([1]; first compound 0.03162 µM)	relative viability ([1]; first compound 0.1 µM)	relative viability ([1]; first compound 0.3162 µM)	relative viability ([1]; first compound 1 µM)	relative viability ([2]; first compound 0.5 µM)	relative viability ([2]; first compound 5 µM)	relative viability ([2]; first compound 15.81 µM)	relative viability ([2]; first compound 50 µM)	relative viability ([3]; first compound 0.5 µM)	relative viability ([3]; first compound 5 µM)	relative viability ([3]; first compound 15.81 µM)	relative viability ([3]; first compound 50 µM)	relative viability ([4]; first compound 0.01 µM)	relative viability ([4]; first compound 0.03162 µM)	relative viability ([4]; first compound 0.1 µM)	relative viability ([4]; first compound 0.3162 µM)	relative viability ([4]; first compound 1 µM)
NCI-H838	0.728	0.786	0.722	0.685	0.711	0.876	0.776	0.797	0.758	0.293	0.259	0.249	0.231	0.496	0.44	0.536	0.499	0.553
NCI-H1355	0.659	0.549	0.617	0.55	0.619	0.753	0.725	0.679	0.718	1.08	0.978	1	1.01	0.534	0.361	0.384	0.392	0.472
NCI-H1395	0.575	0.517	0.597	0.525	0.52	0.492	0.472	0.445	0.425	0.856	0.91	0.857	1.07	0.665	0.536	0.561	0.553	0.57
NCI-H1437	0.812	0.794	0.955	0.791	0.952	0.557	0.546	0.526	0.492	0.308	0.304	0.33	0.372	0.445	0.522	0.432	0.406	0.378
NCI-H1650	0.614	0.628	0.642	0.377	0.462	0.734	0.729	0.737	0.737	0.336	0.399	0.399	0.354	0.531	0.602	0.441	0.586	0.562
NCI-H1651	0.553	0.606	0.613	0.52	0.632	0.192	0.202	0.198	0.175	0.548	0.586	0.639	0.569	0.551	0.564	0.607	0.523	0.639
NCI-H1666	1.02	1.07	0.986	1	0.942	0.818	0.727	0.752	0.781	0.919	0.846	0.82	0.82	0.533	0.395	0.543	0.408	0.392
